Tests used:
S. epidermidis = test: Bacterial colonies on agar petri dish treated with hydrogen peroxide alone and with UV light; format: cell-based; settings: + 265 nm UV light, 15 minutes
Protocol: (§1) The bacterial (organism) was plated on a standard agar petri dish and allowed to grow. The colonies were treated with hydrogen peroxide alone and with UV light for 15 minutes. The light growth means light growth is visable but not as fully developed colonies. Heavy growth was fully developed colonies to numerous to count.

C. xerosis = test: as above; format: cell-based; settings: + 265 nm UV light, 15 minutes
Protocol: as §1

OO [Hydrogen peroxide]
bacterial growth after treatment (S. epidermidis): Very
bacterial growth after treatment (C. xerosis): No

— patent publication US20170065500A1, “Activation of Hydrogen Peroxide” (Revlon Consumer Products Corporation, priority 2015, published 2017)
